Measured values taken from article PMC11836371, “Virtual fragment screening for DNA repair inhibitors in vast chemical space” (Nature Communications, 2025).

Experiments:
APE1 = APE1 (Homo sapiens, UniProt P27695); test: biochemical
Experimental: Inhibition of the following enzymes was assessed in the selectivity assays: apurinic/apyrimidinic endonuclease (APE1), endonuclease 8-like 1 (NEIL1), oxidized purine nucleoside triphosphate hydrolase (MTH1) and single-strand selective monofunctional uracil DNA glycosylase (SMUG1). BER enzymes were assayed with a similar strategy as OGG1, using identical DNA sequences surrounding the substrate lesion and the same reaction buffer containing 2 nM APE1. To assess SMUG1 inhibition, a 375 nM substrate containing uracil opposite guanine and 0.3 U SMUG1 enzyme (M0336 from New England Biolabs) was used. To assess NEIL1 inhibition, a 20 nM substrate containing thymidine glycol opposite adenine and 10 nM NEIL1 was used. […] All BER inhibition assays were in the linear range and less than 40% of the total substrate had been consumed at readout. The experiments were performed in three independent replicates and the percentage inhibition was calculated relative to the signal of a DMSO-treated control. […] The produced free phosphate was then detected using the malachite green assay[76]. […] Absorbance was read at 630 nm using a Hidex Sense plate reader after a period of incubation with the methylene green reagent of 15 minutes. The experiment was performed in three independent replicates and percentage inhibition was calculated relative to the signal of a DMSO-treated control.

OGG1 in HL60 cells = target: T1, OGG1 in HL60 cells (Homo sapiens, UniProt O15527); test: Cellular thermal shift assay (CETSA); type: cell-based
T1 construct: endogenous in cells; host or cells: HL60
Experimental: CETSA experiments were carried out with intact HL60 cells treated in culture. Cells were seeded at a density of 350 000 cells/mL and treated with DMSO (0.01%, v/v) or 20 µM test compound for 2 h at 37 °C and 5% CO2 in a humidified incubator. Cells were washed once in 1x TBS (50 mM Tris-HCl, pH 7.6, 150 mM NaCl), resuspended in 1x TBS supplemented with protease inhibitors (Roche), and then divided into 30-µL aliquots corresponding to approximately 600,000 cells per sample in PCR strip tubes. Cells were heated in a Veriti Thermal Cycler (Applied Biosystems) for 3 min at indicated temperatures (temperature interval consisting of 2 °C increases, starting from 40 °C up to 62 °C) and cooled for 5 min at room temperature to allow precipitation of denatured proteins. 5x NP-40 buffer was added to the samples and cells were lysed by performing three freeze–thaw cycles at −80 °C for 3 min and at 37 °C for 3 min with gentle vortexing between the cycles. Cell lysates were then centrifuged at 17,000 g and 4 °C for 30 min to remove cellular debris and insoluble proteins. Supernatant was prepared for western blot analysis according to standard procedures. […]

Chain of APE1 (P27695 whole entry, species assumed): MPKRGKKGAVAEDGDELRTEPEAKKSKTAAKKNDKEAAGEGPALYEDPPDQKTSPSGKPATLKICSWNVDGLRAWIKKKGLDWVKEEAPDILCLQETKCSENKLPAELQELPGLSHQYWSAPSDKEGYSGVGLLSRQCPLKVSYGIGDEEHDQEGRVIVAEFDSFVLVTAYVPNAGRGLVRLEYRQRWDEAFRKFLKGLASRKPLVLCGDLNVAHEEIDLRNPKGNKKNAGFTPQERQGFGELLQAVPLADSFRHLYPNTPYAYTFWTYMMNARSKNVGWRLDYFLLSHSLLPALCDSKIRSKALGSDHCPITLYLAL
T1 sequence (O15527 whole entry): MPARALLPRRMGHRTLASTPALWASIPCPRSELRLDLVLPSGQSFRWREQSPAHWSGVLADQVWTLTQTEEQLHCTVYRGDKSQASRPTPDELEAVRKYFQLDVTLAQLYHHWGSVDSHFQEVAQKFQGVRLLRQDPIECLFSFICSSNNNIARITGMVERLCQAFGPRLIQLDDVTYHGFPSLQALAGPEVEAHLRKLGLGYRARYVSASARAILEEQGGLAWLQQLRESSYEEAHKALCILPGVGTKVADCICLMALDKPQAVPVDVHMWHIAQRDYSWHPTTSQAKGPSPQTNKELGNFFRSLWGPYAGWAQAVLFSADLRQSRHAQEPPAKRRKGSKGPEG

Cc1nc(-c2ccc(CC(=O)Nc3noc4c3CCCC4)cc2)c(C)[nH]1 [compound 17]
IC50 (APE1): > 99 µM

Cc1nc(-c2cc(F)c(CC(=O)Nc3noc4c3CCCC4)c(F)c2)c(C)[nH]1 [compound 23]
thermal stabilization of OGG1 in cells (CETSA) (OGG1 in HL60 cells): strong thermal stabilization
